Measured values reported in patent publication US5491149A, “Dihydroxypropylamine containing retroviral protease inhibitors” (The Du Pont Merck Pharmaceutical Company, priority 1994, dated 1996).
Values after ≈ are worked out from the molar mass of the structure shown.

Assays:
HIV protease = target: T1, HIV protease (Human immunodeficiency virus type 1 group M subtype B, UniProt P04585); assay: Cell Free HIV Protease Inhibition Assay (gag polyprotein); assay type: biochemical; conditions: HIV gag polyprotein substrate, 30° C.
T1 construct: plasmid containing HIV protease under the control of the T7 promotor; made in house; host or cells: E. coli (crude lysate, lac promoter)
Excerpt: Procedure III: Cell Free Protease Inhibition Assay Materials:
HIV gag polyprotein corresponding to all of p17 and 78 amino acids of p24, produced by in vitro translation using rabbit reticulocyte lysate and mRNA prepared in vitro from plasmid encoding full length gag polyprotein linerized with the restriction enzyme Pst 1. (see S. Erickson-Viitanen et al., AIDS Research and Human Retroviruses, 5 (6), 577 (1989) for plasmid construction, and basis for assay).
Source of protease: Either (A) crude E. coli lysate of bacteria harboring a plasmid containing HIV protease under the control of the lac promotor, used at a final concentration of 0.5 mg/ml, or (B) inclusion bodies of E. coli harboring plasmid containing HIV protease under the control of the T7 promotor (Cheng et al., Gene, in press (1990)). Such inclusion bodies were solubilized in 8M urea, 50 mM Tris pH 8.0. Protease activity was recovered by dilution of the inclusion bodies 20-fold in buffer containing 50 mM Sodium Acetate, pH 5.5, 1 mM EDTA, 10% glycerol and 5% ethylene glycol. This protease source was used at a final concentration of 0.00875 mg/ml.
Inhibitory compounds were dissolved in sufficient DMSO to make a 2.5 mM stock concentration. All further dilutions were done in DMSO.
Into sterile test tubes were placed the following:
14 ul HIV protease in Phosphate Buffered Saline (20 mM Sodium Phosphate, 0.15M NaCl, pH 6.5).
5 μl of in vitro translation products.
Reactions were incubated at 30° C., then quenched by the addition of Sample buffer. See U. K. Laemmli, Nature, 1970, 227:680-685.
One fourth of each sample was analyzed on an 8-16% gradient denaturing acrylamide gel (Novex, Inc), according to Laemmli. Following electrophoresis, gels were fixed, impregnated with Enhance (Du Pont NEN, Boston, Mass.) and dried according to manufacturers instructions (NEN). Dried fluorographs were exposed to film and/or quantitated using an Ambis radioanalytic scanner.
Each group of test compounds was compared to the values obtained for pepstatin, a well known inhibitor of acid proteases . Inhibitory concentration for 50% inhibition (IC50) is determined from plots of log concentration inhibitor versus % inhibition of protease activity.
Biological Activity: IC50 is the concentration necessary for reducing the activity of the enzyme by 50%.

[1] = test system: HIV(3B) or HIV(RF) in MT-2 human T-cells; assay: HIV Low Multiplicity Assay (XTT, MT-2 cells); assay type: cell-based; conditions: Human immunodeficiency virus 1, MT2, 168 h, 90% protection, multiplicity of infection 0.01, 7 days
Protocol: HIV Low Multiplicity Assby
MT-2, a human T-cell line, was cultured in RPMI medium supplemented with 5% (v/v) heat inactivated fetal calf serum (FCS), L-glutamine and gentamycin (GIBCO). Human immunodeficiency virus strains HIV(3B) and HIV(Rf) were propagated in H-9 cells in RPMI with 5% FCS. XTT, benzene-sulfonic acid, 3,3'-[1-[(phenylamino)carbonyl]-3,4-tetrazolium]bis(4-methoxy-6-nitro)-, sodium salt, was obtained from Starks Associates, Inc.
Test compounds were dissolved in dimethyl-sulfoxide to 5 mg/ml and serially diluted into RPMI medium to ten times the desired final concentration. MT-2 cells (5×10^4 /0.1 ml) were added to each well of a 96 well culture plate and 0.02 ml of the appropriate test compound solution was added to the cells such that each compound concentration was present in two wells. The cells and compounds were allowed to sit for 30 minutes at room temperature. HIV(3B) or HIV(RF) (~5×10^5 plaque forming units/ml) was diluted in medium and added to the cell and compound mixtures to give a multiplicity of infection of 0.01 plaque forming unit/cell. The mixtures were incubated for 7 days at 36° C., during which time the virus replicated and caused the death of unprotected cells. The percentage of cells protected from virus induced cell death was determined by the degree of metabolism of the tetrazolium dye, XTT. In living cells, XTT was metabolized to a colored formazan product which was quantitated spectrophotometrically at 450 nm. The amount of colored formazan was proportional to the number of cells protected from virus by the test compound. The concentration of compound protecting either 50% (IC50) or 90% (IC90) with respect to an uninfected cell culture was determined.

SMILES | IC50 (HIV protease) [µM] | IC90 [1] [µg/mL]
CC(C)(C)NC(=O)[C@@H]1C[C@@H]2CCCC[C@@H]2CN1C[C@H](O)[C@H](O)[C@H](Cc1ccccc1)NC(=O)[C@H](CC(N)=O)NC(=O)OCc1ccccc1 [Example 5, [3S-[2[1R*(R*),2S*,3R*],3a,4ab,8ab]]-(phenylmethyl)[3-amino-1-[[[4-[3-[[(1,1-dimethylethyl)amino]carbonyl]octahydro-2(1H)-isoquinolinyl]-2,3-dihydroxy-1-(phenylmethyl)butyl]amino]carbonyl]-3-oxopropyl]carbamate] | > 18.4 | > 30
CC(C)(C)NC(=O)[C@@H]1C[C@@H]2CCCC[C@@H]2CN1C[C@H](O)[C@H](O)[C@H](Cc1ccccc1)NC(=O)[C@H](CC(N)=O)NC(=O)c1ccc2ccccc2n1 [Example 6, [3S-[2[1R*(R*),2S*,3R*],3a,4ab,8ab]]-N1-[4-[3-[[(1,1-dimethylethyl)amino]carbonyl]octahydro-2(1H)-isoquinolinyl]-2,3-dihydroxy-1-(phenylmethyl)butyl]-2-[(2-quinolinylcarbonyl)amino]butanediamide] | > 17.8 | 10 (≈ 14.3 µM)
CC(C)(C)NC(=O)[C@@H]1C[C@@H]2CCCC[C@@H]2CN1C[C@@H](O)[C@H](O)[C@H](Cc1ccccc1)NC(=O)[C@H](CC(N)=O)NC(=O)OCc1ccccc1 [Example 8, [3S-[2[1R*(R*),2S*,3S*],3a,4ab,8ab]]-(phenylmethyl)[3-amino-1-[[[4-[3-[[(1,1-dimethylethyl)amino]carbonyl]octahydro-2(1H)-isoquinolinyl-2,3-dihydroxy-1-(phenylmethyl)butyl]amino]carbonyl]-3-oxopropyl]carbamate] | > 18.4 | > 30
CC(C)(C)NC(=O)[C@@H]1C[C@@H]2CCCC[C@@H]2CN1C[C@@H](O)[C@H](O)[C@H](Cc1ccccc1)NC(=O)[C@H](CC(N)=O)NC(=O)c1ccc2ccccc2n1 [Example 9, [3S-[2[1R*(R*),2S*,3S*],3a,4ab,8ab]]-N1-[4-[3-[[(1,1-dimethylethyl)amino]carbonyl]octahydro-2(1H)-isoquinolinyl]-2,3-dihydroxy-1-(phenylmethyl)butyl]-2-[(2-quinolinylcarbonyl)amino]butanediamide] | > 17.8 | 3 (≈ 4.28 µM)

Now those with a lower IC50 (HIV protease), led by results:

IC50 (HIV protease) [µM] | IC90 [1] [µg/mL] | SMILES
2.11 | 1.7 (≈ 2.56 µM) | CC(C)[C@H](NC(=O)OCc1ccccc1)C(=O)N[C@@H](Cc1ccccc1)[C@H](O)[C@H](O)CN1C[C@H]2CCCC[C@H]2C[C@H]1C(=O)NC(C)(C)C (relative stereo) [Example 3, [3-[2[1R*(R*),2R*,3S*],3a,4ab,8ab]]-(phenylmethyl)[1-[[[4-[3-[[(1,1-dimethylethyl)amino]carbonyl]octahydro-2(1H)-isoquinolinyl-2,3-dihydroxy-1-(phenylmethyl)butyl]amino]carbonyl]-2-methylpropyl]carbamate]
3.02 | 2 (≈ 2.94 µM) | CC(C)(C)NC(=O)[C@@H]1C[C@@H]2CCCC[C@@H]2CN1C[C@@H](O)[C@@H](O)[C@H](Cc1ccccc1)NC(=O)[C@H](CC(N)=O)NC(=O)OCc1ccccc1 [Example 1, [3S-[2[1R*(R*),2R*,3S*],3a,4ab,8ab]]-(phenylmethyl)[3-amino-1-[[[4-[3-[[(1,1-dimethylethyl)amino]carbonyl]octahydro-2(1H)-isoquinolinyl]-2,3-dihydroxy-1(phenylmethyl)butyl]amino]carbonyl]-3-oxopropyl]carbamate]
0.542 | 0.3 (≈ 0.428 µM) | CC(C)(C)NC(=O)[C@@H]1C[C@@H]2CCCC[C@@H]2CN1C[C@@H](O)[C@@H](O)[C@H](Cc1ccccc1)NC(=O)[C@H](CC(N)=O)NC(=O)c1ccc2ccccc2n1 [Example 2, [3S-[2[1R*(R*),2R*,3S*],3a,4ab,8b]]-N1-[4-[3-[[(1,1-dimethylethyl)amino]carbonyl]octahydro-2(1H)-isoquinolinyl]-2,3-dihydroxy-1-(phenylmethyl)butyl]-2-[(2-quinolinylcarbonyl)amino]butanediamide]
2.93 | 1 (≈ 1.47 µM) | CC[C@H](C)[C@H](NC(=O)OCc1ccccc1)C(=O)N[C@@H](Cc1ccccc1)[C@H](O)[C@H](O)CN1C[C@H]2CCCC[C@H]2C[C@H]1C(=O)NC(C)(C)C [Example 4, [3S-[2[1R*(R*,R*),2R*,3S*],3a,4ab,8ab]]-(phenylmethyl)[1-[[[4-[3-[[(1,1-dimethylethyl)amino]carbonyl]octahydro-2(1H)-isoquinolinyl]-2,3-dihydroxy-1-(phenylmethyl)butyl]amino]carbonyl]-2-methylbutyl]carbamate]
2.84 | 2.2 (≈ 3.14 µM) | CC(C)(C)NC(=O)[C@@H]1C[C@@H]2CCCC[C@@H]2CN1C[C@H](O)[C@@H](O)[C@H](Cc1ccccc1)NC(=O)[C@H](CC(N)=O)NC(=O)c1ccc2ccccc2n1 [Example 7, [3S-[2[1R*(R*),2R*,3R*],3a,4ab,8ab]]-N1-[4-[3-[[(1,1-dimethylethyl)amino]carbonyl]octahydro-2(1H)-isoquinolinyl]-2,3-dihydroxy-1-(phenylmethyl)butyl]-2-[(2-quinolinylcarbonyl)amino]butanediamide]
